Results on 19 molecules are retold here after patent publication US20260053834A1, “COVALENT MODIFIERS OF AKT1 AND USES THEREOF” (Terremoto Biosciences, Inc., priority 2023, published 2026).

Each structure is given as a SMILES string.

For assay [1], the system named is LAPC4 prostate cancer cells, which express the AKT1 E17K allele. In words: Antiproliferative effects in LAPC4 cells (CellTiter Glo, 72 h). Type of assay: cell-based. To be noted: Homo sapiens, LAPC4, 72 h, read-out: LAPC4 proliferation IC50: GeoMean IC50. In short, it runs like this: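 Cells grown in IMDM with 12% FBS, seeded at 1,000 cells/well and treated with compound dilutions in DMSO for 72 h. Intracellular ATP read by luminescence. IC50 from a log(inhibitor) vs. response Hill fit.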

The next assay has as its target T1, AKT1 E17K (Homo sapiens, UniProt P31749, E17K).
T1 construct: expressed in transfected cells; host or cells: HEK293
Briefly: Live cell target engagement by NanoBRET competitive probe displacement, AKT1 E17K. Type of assay: binding. The note with it: transfected HEK293 cells, 2 h at 37° C., read-out: AKT1 E17K IC50: GeoMean IC50.

For the next assay, the target named is T2, AKT1 WT (Homo sapiens, UniProt P31749).
T2 construct: expressed in transfected cells; host or cells: HEK293
T2 sequence (P31749 whole entry): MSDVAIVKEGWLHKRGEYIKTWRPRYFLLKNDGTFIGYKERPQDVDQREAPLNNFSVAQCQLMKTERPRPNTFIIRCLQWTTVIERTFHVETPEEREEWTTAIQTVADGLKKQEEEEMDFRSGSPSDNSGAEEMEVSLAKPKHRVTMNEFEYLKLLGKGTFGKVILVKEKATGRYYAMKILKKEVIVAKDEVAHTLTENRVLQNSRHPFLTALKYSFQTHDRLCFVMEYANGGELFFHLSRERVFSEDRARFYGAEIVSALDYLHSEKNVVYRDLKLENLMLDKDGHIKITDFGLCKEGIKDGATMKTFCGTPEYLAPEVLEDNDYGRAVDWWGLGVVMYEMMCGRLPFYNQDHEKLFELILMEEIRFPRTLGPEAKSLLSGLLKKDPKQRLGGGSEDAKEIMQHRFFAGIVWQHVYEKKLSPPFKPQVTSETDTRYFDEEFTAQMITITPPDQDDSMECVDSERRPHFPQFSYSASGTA
In words: Live cell target engagement by NanoBRET competitive probe displacement, AKT1 WT. Type of assay: binding. To be noted: transfected HEK293 cells, 2 h at 37° C., read-out: AKT1 WT IC50: GeoMean IC50. In general terms: In BRET a luciferase serves as donor, and the signal depends on an acceptor being close.

A further assay has as its target T3, AKT2 (Homo sapiens, UniProt P31751).
T3 construct: expressed in transfected cells; host or cells: HEK293
Briefly: Live cell target engagement by NanoBRET competitive probe displacement, AKT2. Format: binding. To be noted: transfected HEK293 cells, 2 h at 37° C., read-out: AKT2 IC50: GeoMean IC50.

T1 sequence (P31749 whole entry E17K): as the sequence (P31749 whole entry) above, with E17K counted along it
T3 sequence (P31751 whole entry): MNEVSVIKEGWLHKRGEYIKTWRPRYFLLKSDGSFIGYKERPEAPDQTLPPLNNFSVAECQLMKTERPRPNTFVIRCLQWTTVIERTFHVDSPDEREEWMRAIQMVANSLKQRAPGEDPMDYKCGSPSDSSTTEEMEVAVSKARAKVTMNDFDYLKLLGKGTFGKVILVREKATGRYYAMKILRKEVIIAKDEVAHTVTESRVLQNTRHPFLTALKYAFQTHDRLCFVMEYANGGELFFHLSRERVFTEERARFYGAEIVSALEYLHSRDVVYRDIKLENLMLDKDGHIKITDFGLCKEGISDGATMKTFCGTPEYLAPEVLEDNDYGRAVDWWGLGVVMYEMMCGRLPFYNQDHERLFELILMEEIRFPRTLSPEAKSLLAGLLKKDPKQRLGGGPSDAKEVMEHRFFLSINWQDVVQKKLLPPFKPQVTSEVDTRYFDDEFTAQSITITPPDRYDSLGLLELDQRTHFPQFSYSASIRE

`Cc1cc(C(=O)N[C@H]2CCc3cc(-n4c(-c5cccnc5N)nc5ccc(-c6ccccc6)nc54)ccc32)cc(C=O)c1O` [Example 41, N-[(1S)-5-[2-(2-aminopyridin-3-yl)-5-phenylimidazo[4,5-b]pyridin-3-yl]-2,3-dihydro-1H-inden-1-yl]-3-formyl-4-hydroxy-5-methylbenzamide]: the IC50 in assay [1] was 100 to 2000 nM; at AKT1 E17K, 100 to 2000 nM; on AKT1 WT it was 100 to 2000 nM; at AKT2 it was at least 2000 nM.

Take `Nc1ncccc1-c1nc2ccc(N3CCOCC3)nc2n1-c1ccc2c(c1)CC[C@@H]2NC(=O)c1ccc(O)c(C=O)c1` [Example 42, N-[(1S)-5-[2-(2-aminopyridin-3-yl)-5-(morpholin-4-yl)imidazo[4,5-b]pyridin-3-yl]-2,3-dihydro-1H-inden-1-yl]-3-formyl-4-hydroxybenzamide]: the IC50 in assay [1] lay within 100 to 2000 nM; at AKT1 E17K, 10 to 100 nM; on AKT1 WT, 100 to 2000 nM; on AKT2, 100 to 2000 nM.

Take `CCc1ccc2nc(-c3cccnc3N)n(-c3ccc4c(c3)CC[C@@H]4NC(=O)c3ccc(O)c(C=O)c3)c2n1` [Example 43, (S)—N-(5-(2-(2-aminopyridin-3-yl)-5-ethyl-3H-imidazo[4,5-b]pyridin-3-yl)-2,3-dihydro-1H-inden-1-yl)-3-formyl-4-hydroxybenzamide]: the IC50 in assay [1] is 100 to 2000 nM; at AKT1 E17K, 10 to 100 nM; at AKT1 WT, 100 to 2000 nM; at AKT2, at least 2000 nM.

Regarding `Cc1ccc2nc(-c3cccnc3N)n(-c3ccc4c(c3)CC[C@@H]4NC(=O)c3cc(F)c(O)c(C=O)c3)c2n1` [Example 44, (S)—N-(5-(2-(2-aminopyridin-3-yl)-5-methyl-3H-imidazo[4,5-b]pyridin-3-yl)-2,3-dihydro-1H-inden-1-yl)-3-fluoro-5-formyl-4-hydroxybenzamide], the IC50 in assay [1] was 100 to 2000 nM; at AKT1 E17K it was 100 to 2000 nM; on AKT1 WT, 100 to 2000 nM; on AKT2, at least 2000 nM.

As to `CC(=O)Nc1ccc(C(=O)N[C@H]2CCc3cc(-n4c(-c5cccnc5N)nc5ccc(C)nc54)ccc32)cc1C=O` [Example 45, N-[(1S)-5-[2-(2-aminopyridin-3-yl)-5-methylimidazo[4,5-b]pyridin-3-yl]-2,3-dihydro-1H-inden-1-yl]-4-acetamido-3-formylbenzamide], the IC50 in assay [1] is 100 to 2000 nM; at AKT1 E17K, 100 to 2000 nM; at AKT1 WT, 100 to 2000 nM; at AKT2, at least 2000 nM.

Regarding `COc1ccc2nc(-c3cccnc3N)n(-c3ccc4c(c3)CC[C@@H]4NC(=O)c3ccc(O)c(C=O)c3)c2n1` [Example 46, (S)—N-(5-(2-(2-aminopyridin-3-yl)-5-methoxy-3H-imidazo[4,5-b]pyridin-3-yl)-2,3-dihydro-1H-inden-1-yl)-3-formyl-4-hydroxybenzamide], the IC50 is 100 to 2000 nM in assay [1], 100 to 2000 nM at AKT1 E17K, 100 to 2000 nM at AKT1 WT and at least 2000 nM on AKT2.

As to `Nc1ncccc1-c1nc2ccc(-c3ccccc3)nc2n1-c1ccc2c(c1)CC[C@@H]2NC(=O)c1ccc(NC(=O)C2CC2)c(C=O)c1` [Example 47, N-[(1S)-5-[2-(2-aminopyridin-3-yl)-5-phenylimidazo[4,5-b]pyridin-3-yl]-2,3-dihydro-1H-inden-1-yl]-4-cyclopropaneamido-3-formylbenzamide], the IC50 (in assay [1]; at AKT1 E17K; on AKT1 WT; at AKT2) was 10 to 100 nM in each case.

On to `Nc1ncccc1-c1nc2ccc(F)nc2n1-c1ccc2c(c1)CC[C@@H]2NC(=O)c1ccc(O)c(C=O)c1` [Example 48, N-[(1S)-5-[2-(2-aminopyridin-3-yl)-5-fluoroimidazo[4,5-b]pyridin-3-yl]-2,3-dihydro-1H-inden-1-yl]-3-formyl-4-hydroxybenzamide], for which the IC50 in assay [1] is 100 to 2000 nM; on AKT1 E17K, 10 to 100 nM; on AKT1 WT it was 100 to 2000 nM; at AKT2, at least 2000 nM.

For `Nc1ncccc1-c1nc2ccc(C3CC3)nc2n1-c1ccc2c(c1)CC[C@@H]2NC(=O)c1ccc(O)c(C=O)c1` [Example 49, N-[(1S)-5-[2-(2-aminopyridin-3-yl)-5-cyclopropylimidazo[4,5-b]pyridin-3-yl]-2,3-dihydro-1H-inden-1-yl]-3-formyl-4-hydroxybenzamide], the IC50 was 100 to 2000 nM in assay [1], 100 to 2000 nM at AKT1 E17K, 100 to 2000 nM on AKT1 WT and at least 2000 nM at AKT2.

With `C#Cc1ccc2nc(-c3cccnc3N)n(-c3ccc4c(c3)CC[C@@H]4NC(=O)c3ccc(O)c(C=O)c3)c2n1` [Example 50, N-[(1S)-5-[2-(2-aminopyridin-3-yl)-5-ethynylimidazo[4,5-b]pyridin-3-yl]-2,3-dihydro-1H-inden-1-yl]-3-formyl-4-hydroxybenzamide], the IC50 in assay [1] was 100 to 2000 nM; on AKT1 E17K it was 10 to 100 nM; on AKT1 WT, 100 to 2000 nM; at AKT2, at least 2000 nM.

As to `CS(=O)(=O)Nc1ccc(C(=O)N[C@H]2CCc3cc(-n4c(-c5cccnc5N)nc5ccc(-c6ccccc6)nc54)ccc32)cc1C=O` [Example 51, N-[(1S)-5-[2-(2-aminopyridin-3-yl)-5-phenylimidazo[4,5-b]pyridin-3-yl]-2,3-dihydro-1H-inden-1-yl]-3-formyl-4-methanesulfonamidobenzamide], the IC50 in assay [1] is 10 to 100 nM; on AKT1 E17K, under 10 nM; on AKT1 WT, 10 to 100 nM; at AKT2, 10 to 100 nM.

As for `Nc1ncccc1-c1nc2ccc(-c3ccccc3)nc2n1-c1ccc2c(c1)CC[C@@H]2NC(=O)c1ccc(NC(=O)C(F)F)c(C=O)c1` [Example 52, N-[(1S)-5-[2-(2-aminopyridin-3-yl)-5-phenylimidazo[4,5-b]pyridin-3-yl]-2,3-dihydro-1H-inden-1-yl]-4-(2,2-difluoroacetamido)-3-formylbenzamide], the IC50 in assay [1] was 10 to 100 nM; at AKT1 E17K, under 10 nM; at AKT1 WT it was under 10 nM; at AKT2, 10 to 100 nM.

As to `CC(=O)Nc1ccc(C(=O)N[C@H]2CCc3cc(-n4c(-c5cccnc5N)nc5ccc(N6CCOCC6)nc54)ccc32)cc1C=O` [Example 53, N-[(1S)-5-[2-(2-aminopyridin-3-yl)-5-(morpholin-4-yl)imidazo[4,5-b]pyridin-3-yl]-2,3-dihydro-1H-inden-1-yl]-4-acetamido-3-formylbenzamide], the IC50 in assay [1] was 100 to 2000 nM; at AKT1 E17K, under 10 nM; at AKT1 WT, 10 to 100 nM; on AKT2, 100 to 2000 nM.

`Nc1ncccc1-c1nc2ccc(-c3ccccc3)nc2n1-c1ccc2c(c1)CC[C@@H]2NC(=O)c1cnn2ccc(O)c(C=O)c12` [Example 54, N-[(1S)-5-[2-(2-aminopyridin-3-yl)-5-phenylimidazo[4,5-b]pyridin-3-yl]-2,3-dihydro-1H-inden-1-yl]-4-formyl-5-hydroxypyrazolo[1,5-a]pyridine-3-carboxamide]: the IC50 in assay [1] was at least 2000 nM; at AKT1 E17K, 100 to 2000 nM; at AKT1 WT, 10 to 100 nM; on AKT2, 100 to 2000 nM.

On to `Nc1ncccc1-c1nc2ccc(C(F)(F)F)nc2n1-c1ccc2c(c1)CC[C@@H]2NC(=O)c1ccc(O)c(C=O)c1` [Example 55, (S)—N-(5-(2-(2-aminopyridin-3-yl)-5-(trifluoromethyl)-3H-imidazo[4,5-b]pyridin-3-yl)-2,3-dihydro-1H-inden-1-yl)-3-formyl-4-hydroxybenzamide], for which the IC50 in assay [1] is at least 2000 nM; at AKT1 E17K it was 100 to 2000 nM; at AKT1 WT, 100 to 2000 nM; on AKT2, at least 2000 nM.

Take `CC(=O)Nc1ccc(C(=O)N[C@H]2CCc3cc(-n4c(-c5cccnc5N)nc5ccc(-n6cccn6)nc54)ccc32)cc1C=O` [Example 56, N-[(1S)-5-[2-(2-aminopyridin-3-yl)-5-(pyrazol-1-yl)imidazo[4,5-b]pyridin-3-yl]-2,3-dihydro-1H-inden-1-yl]-4-acetamido-3-formylbenzamide]: the IC50 in assay [1] was 10 to 100 nM; on AKT1 E17K it was under 10 nM; on AKT1 WT, 10 to 100 nM; on AKT2, 100 to 2000 nM.

On to `Nc1ncccc1-c1nc2ccc(-c3nccs3)nc2n1-c1ccc2c(c1)CC[C@@H]2NC(=O)c1ccc(O)c(C=O)c1` [Example 57, N-[(1S)-5-[2-(2-aminopyridin-3-yl)-5-(1,3-thiazol-2-yl)imidazo[4,5-b]pyridin-3-yl]-2,3-dihydro-1H-inden-1-yl]-3-formyl-4-hydroxybenzamide], for which the IC50 in assay [1] was 10 to 100 nM; on AKT1 E17K, 10 to 100 nM; at AKT1 WT, 10 to 100 nM; at AKT2, 100 to 2000 nM.

Regarding `Nc1ncccc1-c1nc2ccc(-c3cncnc3)nc2n1-c1ccc2c(c1)CC[C@@H]2NC(=O)c1ccc(O)c(C=O)c1` [Example 58, N-[(1S)-5-[2-(2-aminopyridin-3-yl)-5-(pyrimidin-5-yl)imidazo[4,5-b]pyridin-3-yl]-2,3-dihydro-1H-inden-1-yl]-3-formyl-4-hydroxybenzamide], the IC50 in assay [1] fell in the range of 10 to 100 nM; at AKT1 E17K it was 10 to 100 nM; at AKT1 WT, 10 to 100 nM; on AKT2, 100 to 2000 nM.

With `Cn1ccc(-c2ccc3nc(-c4cccnc4N)n(-c4ccc5c(c4)CC[C@@H]5NC(=O)c4ccc(O)c(C=O)c4)c3n2)n1` [Example 59, (S)—N-(5-(2-(2-aminopyridin-3-yl)-5-(1-methyl-1H-pyrazol-3-yl)-3Himidazo[4,5-b]pyridin-3-yl)-2,3-dihydro-1H-inden-1-yl)-3-formyl-4-hydroxybenzamide], the IC50 in assay [1] fell in the range of 10 to 100 nM; on AKT1 E17K it was 10 to 100 nM; on AKT1 WT, 10 to 100 nM; at AKT2, 100 to 2000 nM.
